Laboratory results from patent US20120016119A1, “NOVEL PYRROLO(2,3-d)PYRIMIDINE COMPOUND” (priority 2009, published 2012).

Key:
C57BL/6N male mice = assay: Inhibitory effect on increased blood glucose after oral glucose load in fasted mice; format: in vivo; settings: one hour before glucose load (3 g/kg, p.o.), C57BL/6N male mice fasted 21 hours
Protocol: C57BL/6N male mice was fasted for 21 hours, and then a stratified randomization allocation was carried out by EXSUS Ver7.6 NP (Arm Systex Co., Ltd.) based on body weights (n=8). Vehicle (solvent: 0.1% Tween 80/0.5% hydroxypropyl methylcellulose) (control group) or a suspended solution of a test compound in the vehicle (test compound group) was orally administered to the mice, and a glucose load (3 g/kg, p.o.) was carried out one hour after administration of a test compound. Blood samplings from the test mice were carried out at each time point of just before administration of drug (−60 min), immediately before glucose load (0 min), 30 minutes (30 min), 60 minutes (60 min) and 120 minutes (120 min) after glucose load. Blood glucose levels at each time point were measured by glucose CII-Test Wako (manufactured by Wako Pure Chemical Industries, Ltd.), AUC (0-120 min) was calculated in each administration group on the basis of the measured value, and evaluated by time-dependent variance analysis and Student's t-Test using EXSUS Ver7.6NP (Arm Systex Co., Ltd.).
An inhibitory effect on increased blood glucose of each test compound (A ratio value of AUC (0-120 min) of the test compound group in case that AUC (0-120 min) of the control group is 100) is shown in the following Table 36.

human GPR119 = target: T1, human GPR119 (Homo sapiens, UniProt Q8TDV5); assay: GPR119 agonistic activity: cAMP production in human GPR119-expressed CHO cells (HTRF cAMP kit); format: cell-based; settings: human GPR119-expressed CHO cells (L8-18), 37° C. for 30 minutes, 500 μM IBMX
T1 construct: expressed in transfected cells; host or cells: CHO cells (LM-3 mock cells carrying luciferase reporter pLG3-CRE6-CRE-VIP); resulting line L8-18
T1 sequence (Q8TDV5 1-335): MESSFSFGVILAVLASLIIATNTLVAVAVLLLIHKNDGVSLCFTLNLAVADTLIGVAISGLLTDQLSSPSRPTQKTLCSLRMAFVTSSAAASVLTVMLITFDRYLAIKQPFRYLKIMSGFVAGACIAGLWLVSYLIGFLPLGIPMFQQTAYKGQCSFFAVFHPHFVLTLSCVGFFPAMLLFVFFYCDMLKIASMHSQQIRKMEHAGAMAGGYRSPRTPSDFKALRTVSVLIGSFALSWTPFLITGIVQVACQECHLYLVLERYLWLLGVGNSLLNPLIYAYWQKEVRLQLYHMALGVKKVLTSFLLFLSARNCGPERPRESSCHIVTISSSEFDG
Protocol: The present experiment is directed to evaluate GPR119 agonistic activity (in vitro) of test compounds by adding the compounds to human GPR119-expressed CHO cells to determine cAMP production of the cells.
Human GPR119-expressed CHO cells (L8-18) were prepared by introducing an expression vector pMSF1-GPR119 (Geneticin-resistance) carrying human GPR119 genes into CHO cells (LM-3; Mock cells) wherein lusiferase expression vector pLG3-CRE6-CRE-VIP (Hygromycin B-resistance) were introduced according to the known method (The Journal of Biological Chemistry Vol. 274 (34), pp. 23940-23947).
Cryopreserved L8-18 cells were melted, and then suspended into 9-fold amounts of assay buffer and centrifuged (1000 rpm, 5 minutes) at room temperature. The supernatant was removed, and then the precipitated cells were resuspended into assay buffer (4 mL). Thereto was added assay buffer which contained IBMX (manufactured by Sigma, #17018-1G), and 7.5×10^4 cells/mL of cell suspension was prepared. The cell suspension was let stand at room temperature for 15 minutes, and then to each well of 96 half well white plate (manufactured by Corning Incorporated, #3693) were added the cell suspension (20 μL) and a solution of a test compound or AR231453 (5 μL; a total of 25 (final concentration: 1500 cells/well, 500 μM IBMX, 1% dimethylsulfoxide). The mixture was incubated at 37° C. for 30 minutes, and then to each well were added a 20-fold diluted solution (each 12.5 μL/well) of cAMP-d2 and Anti cAMP-Cryptate of HTRF cAMP kit (manufactured by Cisbio, #62AM4PEC). The mixture was stirred, and then was let stand for 1 hour under light shielding. A fluorescence intensity was measured by time-resolved fluorescence mode (Ex: 320 nm, Em: 665 nm, 620 nm) of Microplate Reader (ARVO or SpectraMax M5e). In ARVO, Ratios [Ratio=(665 nm/620 nm)×10^4)] of cAMP-d2 to Anti cAMP-Cryptate were calculated from the resulting fluorescence intensity, and cAMP concentrations of each well were calculated from cAMP standard curve prepared by the Ratios and GraphPad Prism. In SpectraMax M5e, cAMP concentrations of each well were calculated on the basis of a standard curve prepared by the resulting fluorescence intensity and Softmax Pro.
EC50 of test compounds were calculated by GraphPad Prism.

Compound | Inhibitory Effect on Increased Blood Glucose (ratio value of AUC (0-120 min) of test compound group, control group = 100) (C57BL/6N male mice; 3 mg/kg orally) | Inhibitory Effect on Increased Blood Glucose (ratio value of AUC (0-120 min) of test compound group, control group = 100) (C57BL/6N male mice; 10 mg/kg orally) | other results
CC(C)OC(=O)N1CCC(n2cc(F)c3c(Nc4ccc(C(=O)N5CCCC5)cc4F)ncnc32)CC1 [Example Compound 163] | 86 | – | –
CC(C)c1nc(N2CCC(n3cc(F)c4c(Nc5ccc(C(=O)N(C)CCO)cc5F)ncnc43)CC2)no1 [Example Compound 115] | 92 | – | –
CCc1cnc(N2CCC(n3cc(F)c4c(Nc5ccc(C(=O)N6CC[C@@H](O)C6)cc5Cl)ncnc43)CC2)nc1 [Example Compound 185] | – | – | Inhibitory Effect on Increased Blood Glucose (ratio value of AUC (0-120 min) of test compound group, control group = 100) (C57BL/6N male mice; 1 mg/kg orally): 89
CC(C)c1cnc(N2CCC(n3cc(F)c4c(Nc5ccc(C(=O)N6CCC[C@@H](O)C6)cc5F)ncnc43)CC2)nc1 [Example Compound 132] | 90 | – | –
O=C(c1ccc(Nc2ncnc3c2c(F)cn3C2CCN(c3noc(C(F)(F)F)n3)CC2)c(F)c1)N1CC[C@@H](O)C1 [Example Compound 178] | – | – | Inhibitory Effect on Increased Blood Glucose (ratio value of AUC (0-120 min) of test compound group, control group = 100) (C57BL/6N male mice; 1 mg/kg orally): 88
CN(CCO)C(=O)c1ccc(Nc2ncnc3c2c(F)cn3C2CCN(c3ncc(Cl)cn3)CC2)c(F)c1 [Example Compound 134] | 82 | – | –
CCc1cnc(N2CCC(n3cc(F)c4c(Nc5ccc(C(=O)N(C)CCCO)cc5F)ncnc43)CC2)nc1 [Example Compound 63] | – | 89 | EC50 (human GPR119): < 1000 nM
CCc1cnc(N2CCC(n3cc(F)c4c(Nc5ccc(C(=O)N(C)C)cc5Cl)ncnc43)CC2)nc1 [Example Compound 29] | – | 88 | EC50 (human GPR119): < 1000 nM
CCCc1cnc(N2CCC(n3cc(F)c4c(Nc5ccc(C(=O)N6CC[C@@H](O)C6)cc5F)ncnc43)CC2)nc1 [Example Compound 121] | 82 | – | –
CC(C)Oc1cnc(N2CCC(n3cc(F)c4c(Nc5ccc(C(=O)N(C)CCO)cc5F)ncnc43)CC2)nc1 [Example Compound 153] | 84 | – | EC50 (human GPR119): < 1000 nM
CN(CCO)C(=O)c1ccc(Nc2ncnc3c2c(F)cn3C2CCN(c3ncc(C4CC4)cn3)CC2)c(F)c1 [Example Compound 129] | 88 | – | –
CCc1cnc(N2CCC(n3cc(F)c4c(Nc5ccc(C(=O)N(C)C)cc5F)ncnc43)CC2)nc1 [Example Compound 6, 4-[7-[1-(5-ethylpyrimidin-2-yl)piperidin-4-yl]-5-fluoro-7H-pyrrolo[2,3-d]pyrimidin-4-ylamino]-3-fluoro-N,N-dimethylbenzamide] | – | 85 | –
O=C(c1ccc(Nc2ncnc3c2c(F)cn3C2CCN(c3ncc(C4CC4)cn3)CC2)c(F)c1)N1CC[C@@H](O)C1 [Example Compound 128] | 83 | – | –
CC(C)Oc1cnc(N2CCC(n3cc(F)c4c(Nc5ccc(C(=O)N(C)CCCO)cc5F)ncnc43)CC2)nc1 [Example Compound 154] | 86 | – | –
CC(C)c1cnc(N2CCC(n3cc(F)c4c(Nc5ccc(C(=O)N(C)CCO)cc5F)ncnc43)CC2)nc1 [Example Compound 124] | 86 | – | –
CC(C)c1noc(N2CCC(n3cc(F)c4c(Nc5ccc(C(=O)N6CCCC6)cc5F)ncnc43)CC2)n1 [Example Compound 161] | 87 | – | –
CCc1cnc(N2CCC(n3cc(F)c4c(Nc5ccc(C(=O)N6CC[C@H](O)C6)cc5F)ncnc43)CC2)nc1 [Example Compound 62] | – | 86 | EC50 (human GPR119): < 1000 nM
CCc1cnc(N2CCC(n3cc(F)c4c(Nc5ccc(C(=O)N6CC[C@@H](O)C6)cc5F)ncnc43)CC2)nc1 [Example Compound 61] | – | 85 | EC50 (human GPR119): < 1000 nM
CCc1cnc(N2CCC(n3cc(F)c4c(Nc5ccc(C(=O)N(C)CCO)cc5F)ncnc43)CC2)nc1 [Example Compound 8, 4-[7-[1-(5-ethylpyrimidin-2-yl)piperidin-4-yl]-5-fluoro-7H-pyrrolo[2,3-d]pyrimidin-4-ylamino]-3-fluoro-N-(2-hydroxyethyl)-N-methylbenzamide] | – | 83 | –
